Test results published in PubChem BioAssay (NCI).
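Where inhibition never reached the appropriate level, the endpoint shown equals the highest concentration tested. Otherwise, values were interpolated linearly from a five-concentration, 48-hour dose response in 96-well plates. At the TGI there is no net growth.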

Tests used:
Experiment in all cases: NCI tumour cell line growth inhibition, 48 h
[1] = tested on: 786-0 renal
[2] = tested on: IGROV1 ovarian
[3] = tested on: SF-539 CNS
[4] = tested on: BT-549 breast
[5] = tested on: RXF 393 renal
[6] = tested on: MDA-N
[7] = tested on: M19-MEL melanoma
[8] = tested on: NCI-H23 lung
[9] = tested on: PC-3 prostate
[10] = tested on: CCRF-CEM leukemia
[11] = tested on: K-562 leukemia
[12] = tested on: SNB-19 CNS
[13] = tested on: UO-31 renal
[14] = tested on: HOP-92 NSCLC
[15] = tested on: P388/ADR leukemia
[16] = tested on: SN12C renal
[17] = tested on: U251 CNS
[18] = tested on: CAKI-1 renal
[19] = tested on: A498 renal
[20] = tested on: NCI-H226 lung
[21] = tested on: HCT-116 colon
[22] = tested on: SK-MEL-2 melanoma
[23] = tested on: LXFL 529 NSCLC
[24] = tested on: DU-145 prostate
[25] = tested on: DMS 273 small cell lung
[26] = tested on: XF 498 CNS
[27] = tested on: SF-268 CNS
[28] = tested on: TK-10 renal
[29] = tested on: HL-60(TB) leukemia
[30] = tested on: SW-620 colon
[31] = tested on: EKVX NSCLC
[32] = tested on: MOLT-4 leukemia
[33] = tested on: KM20L2 colon
[34] = tested on: HOP-18 NSCLC
[35] = tested on: MDA-MB-435
[36] = tested on: M14 melanoma
[37] = tested on: MALME-3M melanoma
[38] = tested on: HOP-62 NSCLC
[39] = tested on: UACC-62 melanoma
[40] = tested on: SK-MEL-28 melanoma
[41] = tested on: OVCAR-4 ovarian
[42] = tested on: OVCAR-3 ovarian
[43] = tested on: SNB-78 CNS
[44] = tested on: NCI-H522 lung
[45] = tested on: SR leukemia
[46] = tested on: LOX IMVI melanoma
[47] = tested on: OVCAR-5 ovarian
[48] = tested on: SNB-75 CNS
[49] = tested on: HCT-15 colon
[50] = tested on: SK-MEL-5 melanoma
[51] = tested on: HT29 colon
[52] = tested on: SK-OV-3 ovarian
[53] = tested on: MCF7 breast
[54] = tested on: ACHN renal
[55] = tested on: RPMI-8226 leukemia
[56] = tested on: DMS 114 small cell lung
[57] = tested on: NCI/ADR-RES ovarian
[58] = tested on: KM12 colon
[59] = tested on: NCI-H460 lung
[60] = tested on: UACC-257 melanoma
[61] = tested on: HCC-2998 colon
[62] = tested on: OVCAR-8 ovarian
[63] = tested on: COLO 205 colon
[64] = tested on: P388 leukemia
[65] = tested on: DLD-1 colon
[66] = tested on: SF-295 CNS
[67] = tested on: A549 NSCLC
[68] = tested on: MDA-MB-231 breast
[69] = tested on: SN12K1 renal

With COc1ccc2nc3ccccc3c(NCCN(C)CCCl)c2c1 as the compound, how does the TGI [1] read?
Its TGI is 1.89 µM.

And the TGI [2]?
The TGI was 2.58 µM.

And the TGI [3]?
Its TGI is 1.85 µM.

And the TGI [4]?
Its TGI is 3.24 µM.

What about the TGI [5] of the same compound?
Its TGI is 1.86 µM.

What about the TGI [6] of the same compound?
Its TGI is 2.4 µM.

What about the TGI [7] of the same compound?
The TGI was 2.48 µM.

And the TGI [8]?
Its TGI is 1.88 µM.

And the TGI [9]?
The TGI was 2.24 µM.

What about the TGI [10] of the same compound?
The TGI was 3.67 µM.

What about the TGI [11] of the same compound?
Its TGI is 9.24 µM.

And the TGI [12]?
The TGI was 7.44 µM.

And the TGI [13]?
The TGI was 3.38 µM.

And the TGI [14]?
Its TGI is 3.85 µM.

And the TGI [15]?
Its TGI is 8.73 µM.

And the TGI [16]?
Its TGI is 2.86 µM.

What about the TGI [17] of the same compound?
The TGI was 3.16 µM.

What about the TGI [18] of the same compound?
The TGI was 2.2 µM.

And the TGI [19]?
Its TGI is 3.02 µM.

And the TGI [20]?
The TGI was 2.26 µM.

What about the TGI [21] of the same compound?
The TGI was 2.63 µM.

And the TGI [22]?
The TGI was 2.41 µM.

What about the TGI [23] of the same compound?
The TGI was 1.85 µM.

And the TGI [24]?
The TGI was 4.47 µM.

And the TGI [25]?
Its TGI is 2.35 µM.

And the TGI [26]?
Its TGI is 2.3 µM.

What about the TGI [27] of the same compound?
The TGI was 3.85 µM.

What about the TGI [28] of the same compound?
Its TGI is 15.7 µM.

What about the TGI [29] of the same compound?
The TGI was 1.73 µM.

And the TGI [30]?
Its TGI is 1.91 µM.

And the TGI [31]?
Its TGI is 4.37 µM.

And the TGI [32]?
The TGI was 0.497 µM.

What about the TGI [33] of the same compound?
The TGI was 2.88 µM.

And the TGI [34]?
Its TGI is 6.29 µM.

And the TGI [35]?
The TGI was 2.15 µM.

What about the TGI [36] of the same compound?
Its TGI is 2.29 µM.

And the TGI [37]?
The TGI was 1.5 µM.

And the TGI [38]?
Its TGI is 3.7 µM.

And the TGI [39]?
Its TGI is 2.03 µM.

What about the TGI [40] of the same compound?
Its TGI is 3.97 µM.

And the TGI [41]?
The TGI was 2.8 µM.

What about the TGI [42] of the same compound?
Its TGI is 3.29 µM.

What about the TGI [43] of the same compound?
The TGI was 4.76 µM.

And the TGI [44]?
The TGI was 1.51 µM.

What about the TGI [45] of the same compound?
Its TGI is 2.31 µM.

And the TGI [46]?
Its TGI is 1.77 µM.

And the TGI [47]?
The TGI was 3.84 µM.

And the TGI [48]?
The TGI was 4.07 µM.

And the TGI [49]?
Its TGI is 7.56 µM.

And the TGI [50]?
The TGI was 2.03 µM.

What about the TGI [51] of the same compound?
Its TGI is 4.95 µM.

What about the TGI [52] of the same compound?
The TGI was 3.5 µM.

And the TGI [53]?
The TGI was 4.18 µM.

And the TGI [54]?
Its TGI is 1.91 µM.

And the TGI [55]?
The TGI was 1.53 µM.

And the TGI [56]?
The TGI was 2.31 µM.

What about the TGI [57] of the same compound?
The TGI was 3.79 µM.

What about the TGI [58] of the same compound?
The TGI was 4.13 µM.

And the TGI [59]?
The TGI was 2.49 µM.

And the TGI [60]?
Its TGI is 9.46 µM.

And the TGI [61]?
The TGI was 2.15 µM.

And the TGI [62]?
The TGI was 2.76 µM.

What about the TGI [63] of the same compound?
Its TGI is 1.84 µM.

What about the TGI [64] of the same compound?
The TGI was 1.51 µM.

And the TGI [65]?
The TGI was 3.45 µM.

What about the TGI [66] of the same compound?
The TGI was 4.17 µM.

What about the TGI [67] of the same compound?
Its TGI is 4.88 µM.

What about the TGI [68] of the same compound?
The TGI was 2.98 µM.

With CN(C)CCNC(=O)c1ccc(Cl)c2ccc(-c3ccccc3)nc12 as the compound, how does the TGI [2] read?
Its TGI is 14.1 µM.

And the TGI [3]?
Its TGI is 12.8 µM.

And the TGI [5]?
The TGI was 19 µM.

And the TGI [7]?
Its TGI is 13.4 µM.

And the TGI [8]?
The TGI was 16.6 µM.

And the TGI [10]?
Its TGI is 10.8 µM.

What about the TGI [11] of the same compound?
The TGI was 6.15 µM.

What about the TGI [12] of the same compound?
The TGI was 17.1 µM.

And the TGI [13]?
The TGI was 5.21 µM.

What about the TGI [14] of the same compound?
The TGI was 7.52 µM.

And the TGI [15]?
Its TGI is 5.17 µM.

What about the TGI [16] of the same compound?
Its TGI is 15.5 µM.

And the TGI [17]?
Its TGI is 12.7 µM.

And the TGI [18]?
The TGI was 12.9 µM.

What about the TGI [19] of the same compound?
The TGI was 12.8 µM.

And the TGI [20]?
The TGI was 7.3 µM.

What about the TGI [21] of the same compound?
The TGI was 11.3 µM.

What about the TGI [22] of the same compound?
Its TGI is 20.1 µM.

And the TGI [25]?
Its TGI is 10.9 µM.

What about the TGI [69] of the same compound?
Its TGI is 9.69 µM.

And the TGI [26]?
Its TGI is 11 µM.

What about the TGI [27] of the same compound?
The TGI was 17.5 µM.

What about the TGI [29] of the same compound?
The TGI was 7.65 µM.

And the TGI [30]?
Its TGI is 14.2 µM.

What about the TGI [32] of the same compound?
Its TGI is 5.72 µM.

What about the TGI [33] of the same compound?
Its TGI is 12.9 µM.

What about the TGI [34] of the same compound?
Its TGI is 13.5 µM.

What about the TGI [37] of the same compound?
Its TGI is 10.6 µM.

What about the TGI [38] of the same compound?
The TGI was 11 µM.

What about the TGI [39] of the same compound?
Its TGI is 7.83 µM.

What about the TGI [40] of the same compound?
Its TGI is 14.6 µM.

And the TGI [41]?
Its TGI is 14 µM.

What about the TGI [42] of the same compound?
The TGI was 19.4 µM.

And the TGI [43]?
Its TGI is 20.5 µM.

And the TGI [44]?
The TGI was 14.9 µM.

What about the TGI [47] of the same compound?
Its TGI is 13.3 µM.

And the TGI [48]?
The TGI was 12.3 µM.

And the TGI [49]?
The TGI was 14.5 µM.

What about the TGI [50] of the same compound?
Its TGI is 4.82 µM.

What about the TGI [51] of the same compound?
The TGI was 11.9 µM.

What about the TGI [52] of the same compound?
The TGI was 17.4 µM.

What about the TGI [53] of the same compound?
The TGI was 16.8 µM.

What about the TGI [55] of the same compound?
Its TGI is 7.83 µM.

What about the TGI [57] of the same compound?
Its TGI is 12.1 µM.

And the TGI [58]?
The TGI was 24.2 µM.

What about the TGI [59] of the same compound?
The TGI was 8.04 µM.

And the TGI [60]?
Its TGI is 14.2 µM.

And the TGI [61]?
The TGI was 16.6 µM.

And the TGI [62]?
The TGI was 12.3 µM.

What about the TGI [63] of the same compound?
Its TGI is 4.85 µM.

And the TGI [65]?
Its TGI is 12.7 µM.

What about the TGI [66] of the same compound?
The TGI was 16.5 µM.

What about the TGI [67] of the same compound?
The TGI was 13 µM.
